Assay results as given in ChEMBL document CHEMBL4028801, “A multifactorial approach to hepatobiliary transporter assessment enables improved therapeutic compound development” (Toxicol Sci, 2013).
Values belong to the molecule of their own block, whether it stands above or below them.

Legend:
[1] = target: ATP-binding cassette sub-family C member 2 (Homo sapiens, UniProt Q92887); assay: Inhibition of human MRP2 overexpressed in Sf9 cell membrane vesicles assessed as uptake of [3H]-estradiol-17beta-D-glucuronide in presence of ATP and GSH measured after 20 mins by membrane vesicle transport assay
ATP-binding cassette sub-family C member 2, sequence (Q92887 whole entry): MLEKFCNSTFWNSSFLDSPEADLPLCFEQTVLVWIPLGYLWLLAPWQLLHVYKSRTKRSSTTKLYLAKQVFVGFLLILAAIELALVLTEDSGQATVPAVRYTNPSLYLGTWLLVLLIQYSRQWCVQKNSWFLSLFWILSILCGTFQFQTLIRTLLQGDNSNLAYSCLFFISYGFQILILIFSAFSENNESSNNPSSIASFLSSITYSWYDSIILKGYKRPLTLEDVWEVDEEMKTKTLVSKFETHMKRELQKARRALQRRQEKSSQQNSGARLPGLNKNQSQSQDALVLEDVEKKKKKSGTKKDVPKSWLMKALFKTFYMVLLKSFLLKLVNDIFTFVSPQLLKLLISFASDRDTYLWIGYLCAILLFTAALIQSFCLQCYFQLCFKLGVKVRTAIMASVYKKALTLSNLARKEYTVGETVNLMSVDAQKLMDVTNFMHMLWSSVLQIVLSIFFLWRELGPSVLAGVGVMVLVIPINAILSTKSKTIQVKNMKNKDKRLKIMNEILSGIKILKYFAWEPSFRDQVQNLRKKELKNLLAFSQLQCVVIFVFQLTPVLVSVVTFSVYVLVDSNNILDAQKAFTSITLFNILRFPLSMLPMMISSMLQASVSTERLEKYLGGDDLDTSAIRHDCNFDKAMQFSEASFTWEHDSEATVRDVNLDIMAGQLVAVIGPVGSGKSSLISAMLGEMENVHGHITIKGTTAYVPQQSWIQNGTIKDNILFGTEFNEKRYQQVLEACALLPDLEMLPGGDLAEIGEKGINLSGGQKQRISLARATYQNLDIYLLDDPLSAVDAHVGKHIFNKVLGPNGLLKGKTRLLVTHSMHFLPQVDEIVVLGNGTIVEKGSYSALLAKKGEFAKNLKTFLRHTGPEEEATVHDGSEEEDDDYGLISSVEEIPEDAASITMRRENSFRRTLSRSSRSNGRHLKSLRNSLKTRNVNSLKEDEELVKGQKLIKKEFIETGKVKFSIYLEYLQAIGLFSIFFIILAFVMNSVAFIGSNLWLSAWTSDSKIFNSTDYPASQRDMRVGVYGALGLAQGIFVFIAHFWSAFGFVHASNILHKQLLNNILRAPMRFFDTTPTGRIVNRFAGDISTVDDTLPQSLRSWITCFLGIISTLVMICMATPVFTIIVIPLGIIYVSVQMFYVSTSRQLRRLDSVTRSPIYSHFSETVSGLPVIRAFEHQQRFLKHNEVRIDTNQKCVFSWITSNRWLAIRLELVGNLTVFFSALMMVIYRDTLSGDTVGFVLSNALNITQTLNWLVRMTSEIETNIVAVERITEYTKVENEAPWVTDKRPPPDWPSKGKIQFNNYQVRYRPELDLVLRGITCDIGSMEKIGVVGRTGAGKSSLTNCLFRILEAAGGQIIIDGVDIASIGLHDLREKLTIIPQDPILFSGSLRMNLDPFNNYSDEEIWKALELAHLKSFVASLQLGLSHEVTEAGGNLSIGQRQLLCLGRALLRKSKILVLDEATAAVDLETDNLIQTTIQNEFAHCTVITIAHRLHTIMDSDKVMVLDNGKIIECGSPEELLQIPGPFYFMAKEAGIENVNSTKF

[2] = Drug concentration at steady state in human at 600 mg, po QD after 24 hrs; format: ADME, organism-based; settings: in vivo, read-out: Css
[3] = Ratio of drug concentration at steady state in human at 600 mg, po QD after 24 hrs to IC50 for human BSEP overexpressed in Sf9 insect cells; format: ADME, organism-based; settings: in vivo
[4] = AUC in human at 600 mg, po QD after 24 hrs; format: ADME, organism-based; design: time < 24 hr, dose 600 mg, route oral; settings: in vivo
[5] = target: ATP-binding cassette sub-family C member 3 (Homo sapiens, UniProt O15438); assay: Inhibition of human MRP3 overexpressed in Sf9 insect cell membrane vesicles assessed as uptake of [3H]-estradiol-17beta-D-glucuronide in presence of ATP and GSH measured after 10 mins by membrane vesicle transport assay; format: ADME, cell-based
ATP-binding cassette sub-family C member 3, sequence (O15438 whole entry): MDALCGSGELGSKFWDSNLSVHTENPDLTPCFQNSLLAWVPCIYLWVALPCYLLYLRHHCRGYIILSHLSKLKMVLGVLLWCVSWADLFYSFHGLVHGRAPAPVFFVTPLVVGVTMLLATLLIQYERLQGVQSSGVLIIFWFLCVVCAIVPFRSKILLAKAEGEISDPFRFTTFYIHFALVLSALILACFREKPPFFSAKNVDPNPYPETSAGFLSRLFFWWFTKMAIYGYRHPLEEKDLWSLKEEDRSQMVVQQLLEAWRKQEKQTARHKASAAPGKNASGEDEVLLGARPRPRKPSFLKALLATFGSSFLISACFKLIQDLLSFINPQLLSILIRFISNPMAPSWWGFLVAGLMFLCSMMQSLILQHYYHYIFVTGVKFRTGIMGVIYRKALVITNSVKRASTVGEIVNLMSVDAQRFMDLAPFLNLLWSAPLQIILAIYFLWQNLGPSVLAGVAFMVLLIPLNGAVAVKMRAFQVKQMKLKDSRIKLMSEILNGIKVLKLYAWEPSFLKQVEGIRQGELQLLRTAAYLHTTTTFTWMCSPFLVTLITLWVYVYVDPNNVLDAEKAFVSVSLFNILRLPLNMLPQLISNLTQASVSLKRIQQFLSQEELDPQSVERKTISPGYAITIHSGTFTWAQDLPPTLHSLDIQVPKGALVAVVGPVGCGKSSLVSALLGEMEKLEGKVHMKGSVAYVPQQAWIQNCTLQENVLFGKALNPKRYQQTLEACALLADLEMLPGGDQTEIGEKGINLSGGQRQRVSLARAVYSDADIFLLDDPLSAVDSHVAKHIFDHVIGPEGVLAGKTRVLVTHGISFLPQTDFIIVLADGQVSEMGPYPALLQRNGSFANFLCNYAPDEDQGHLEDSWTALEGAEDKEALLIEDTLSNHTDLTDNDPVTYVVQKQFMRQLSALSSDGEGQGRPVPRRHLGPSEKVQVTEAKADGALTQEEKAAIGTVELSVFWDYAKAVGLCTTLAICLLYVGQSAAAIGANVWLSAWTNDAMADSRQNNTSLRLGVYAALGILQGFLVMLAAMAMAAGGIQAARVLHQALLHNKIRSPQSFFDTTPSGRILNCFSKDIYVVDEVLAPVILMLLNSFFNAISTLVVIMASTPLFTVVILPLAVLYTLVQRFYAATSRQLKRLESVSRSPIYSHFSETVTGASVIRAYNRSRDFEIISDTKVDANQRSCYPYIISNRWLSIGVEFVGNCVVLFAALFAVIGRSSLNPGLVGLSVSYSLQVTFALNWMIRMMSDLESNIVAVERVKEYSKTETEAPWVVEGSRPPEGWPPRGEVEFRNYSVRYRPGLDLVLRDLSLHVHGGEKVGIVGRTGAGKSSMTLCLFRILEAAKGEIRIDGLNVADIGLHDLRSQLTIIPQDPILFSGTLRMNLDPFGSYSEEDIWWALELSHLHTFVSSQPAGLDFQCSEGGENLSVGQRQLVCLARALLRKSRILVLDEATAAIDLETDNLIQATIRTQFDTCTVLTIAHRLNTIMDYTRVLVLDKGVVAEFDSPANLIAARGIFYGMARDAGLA

Bile salt export pump = Bile salt export pump (Homo sapiens, UniProt O95342); assay: Inhibition of human BSEP overexpressed in Sf9 cell membrane vesicles assessed as uptake of [3H]-taurocholate in presence of ATP measured after 15 to 20 mins by membrane vesicle transport assay; format: ADME, cell-based
Bile salt export pump, sequence (O95342 whole entry): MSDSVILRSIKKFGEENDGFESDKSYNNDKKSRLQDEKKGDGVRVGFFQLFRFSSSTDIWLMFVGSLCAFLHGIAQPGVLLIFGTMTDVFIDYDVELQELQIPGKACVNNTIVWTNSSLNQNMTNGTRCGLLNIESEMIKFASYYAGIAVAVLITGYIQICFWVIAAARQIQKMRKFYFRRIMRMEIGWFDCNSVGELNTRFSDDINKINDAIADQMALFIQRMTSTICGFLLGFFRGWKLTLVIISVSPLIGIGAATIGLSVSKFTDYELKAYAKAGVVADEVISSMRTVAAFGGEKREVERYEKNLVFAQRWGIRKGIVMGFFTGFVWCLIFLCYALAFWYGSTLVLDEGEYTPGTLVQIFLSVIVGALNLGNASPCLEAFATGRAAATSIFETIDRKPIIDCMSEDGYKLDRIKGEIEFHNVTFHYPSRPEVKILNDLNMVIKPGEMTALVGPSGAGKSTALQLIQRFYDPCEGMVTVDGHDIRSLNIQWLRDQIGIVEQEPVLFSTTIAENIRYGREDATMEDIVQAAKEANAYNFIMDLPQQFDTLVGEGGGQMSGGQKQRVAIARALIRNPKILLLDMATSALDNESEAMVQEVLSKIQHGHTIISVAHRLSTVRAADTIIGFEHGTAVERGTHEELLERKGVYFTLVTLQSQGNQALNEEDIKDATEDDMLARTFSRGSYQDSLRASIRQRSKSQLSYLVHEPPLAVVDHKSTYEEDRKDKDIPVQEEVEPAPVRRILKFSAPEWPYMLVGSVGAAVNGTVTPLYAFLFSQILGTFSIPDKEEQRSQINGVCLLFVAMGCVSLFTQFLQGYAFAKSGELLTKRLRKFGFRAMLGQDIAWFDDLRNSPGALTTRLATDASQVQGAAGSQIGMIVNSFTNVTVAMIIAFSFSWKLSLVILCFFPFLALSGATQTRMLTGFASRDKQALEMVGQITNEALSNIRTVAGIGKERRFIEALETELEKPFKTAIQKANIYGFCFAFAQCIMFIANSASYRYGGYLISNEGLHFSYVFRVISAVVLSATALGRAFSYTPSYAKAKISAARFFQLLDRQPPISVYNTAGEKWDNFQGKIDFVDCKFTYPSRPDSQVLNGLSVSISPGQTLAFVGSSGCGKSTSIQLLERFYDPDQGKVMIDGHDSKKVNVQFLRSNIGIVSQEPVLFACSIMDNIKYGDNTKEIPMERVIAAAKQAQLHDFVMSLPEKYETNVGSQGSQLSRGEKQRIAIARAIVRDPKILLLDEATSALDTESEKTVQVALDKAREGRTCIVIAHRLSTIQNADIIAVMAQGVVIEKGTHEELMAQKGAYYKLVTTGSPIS

[6] = target: T1, ATP-binding cassette sub-family C member 4 (Homo sapiens, UniProt O15439); assay: Inhibition of human MRP4 overexpressed in Sf9 cell membrane vesicles assessed as uptake of [3H]-estradiol-17beta-D-glucuronide in presence of ATP and GSH measured after 20 mins by membrane vesicle transport assay; format: ADME, cell-based
T1 sequence (O15439 whole entry): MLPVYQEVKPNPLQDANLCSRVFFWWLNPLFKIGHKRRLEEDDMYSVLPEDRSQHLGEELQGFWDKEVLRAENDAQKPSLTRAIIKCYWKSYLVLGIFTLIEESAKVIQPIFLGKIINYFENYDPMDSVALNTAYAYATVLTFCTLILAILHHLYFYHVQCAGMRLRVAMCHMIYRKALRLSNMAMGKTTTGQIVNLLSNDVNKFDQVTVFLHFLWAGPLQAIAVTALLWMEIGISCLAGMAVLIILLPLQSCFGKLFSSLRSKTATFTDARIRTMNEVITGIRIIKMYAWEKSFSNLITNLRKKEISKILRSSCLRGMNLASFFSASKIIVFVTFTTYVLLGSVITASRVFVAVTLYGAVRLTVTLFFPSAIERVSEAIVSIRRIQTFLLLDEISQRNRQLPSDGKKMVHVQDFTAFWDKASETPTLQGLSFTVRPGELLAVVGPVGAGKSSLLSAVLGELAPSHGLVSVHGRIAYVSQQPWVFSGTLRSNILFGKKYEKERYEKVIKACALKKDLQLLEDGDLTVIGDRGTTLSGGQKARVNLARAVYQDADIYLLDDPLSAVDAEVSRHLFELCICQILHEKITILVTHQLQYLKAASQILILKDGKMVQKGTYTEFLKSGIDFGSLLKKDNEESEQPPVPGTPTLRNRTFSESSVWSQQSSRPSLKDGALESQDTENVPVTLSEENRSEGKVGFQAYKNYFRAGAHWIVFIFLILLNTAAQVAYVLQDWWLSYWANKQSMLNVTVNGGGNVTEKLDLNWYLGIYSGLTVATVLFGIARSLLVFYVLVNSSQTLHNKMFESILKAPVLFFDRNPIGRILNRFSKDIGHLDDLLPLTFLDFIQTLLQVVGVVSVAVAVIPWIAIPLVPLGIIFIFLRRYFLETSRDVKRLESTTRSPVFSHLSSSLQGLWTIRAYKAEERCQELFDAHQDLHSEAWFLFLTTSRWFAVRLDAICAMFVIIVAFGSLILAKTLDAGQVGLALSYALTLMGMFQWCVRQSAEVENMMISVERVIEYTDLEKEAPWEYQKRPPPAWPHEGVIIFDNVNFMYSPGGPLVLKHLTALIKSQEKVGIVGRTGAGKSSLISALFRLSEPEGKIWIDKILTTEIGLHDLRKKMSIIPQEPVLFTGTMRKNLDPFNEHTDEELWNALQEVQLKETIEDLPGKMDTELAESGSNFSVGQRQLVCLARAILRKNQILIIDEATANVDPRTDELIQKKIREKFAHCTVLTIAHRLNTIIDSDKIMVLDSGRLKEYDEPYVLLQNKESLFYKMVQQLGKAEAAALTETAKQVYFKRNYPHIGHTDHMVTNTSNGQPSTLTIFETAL

[7] = Drug concentration at steady state in human at 600 mg administered twice weekly followed by 600 mg administered once in a week measured after 84 hrs; format: ADME; settings: in vivo, read-out: Css
[8] = Ratio of drug concentration at steady state in human at 600 mg administered twice weekly followed by 600 mg administered once in a week measured after 84 hrs to IC50 for human MRP3 overexpressed in Sf9 insect cells; format: ADME; settings: in vivo
[9] = Ratio of drug concentration at steady state in human at 600 mg administered twice weekly followed by 600 mg administered once in a week measured after 84 hrs to IC50 for human MRP4 overexpressed in Sf9 insect cells; format: ADME; settings: in vivo
[10] = Ratio of drug concentration at steady state in human at 600 mg administered twice weekly followed by 600 mg administered once in a week measured after 84 hrs to IC50 for human BSEP overexpressed in Sf9 insect cells; format: ADME; settings: in vivo
[11] = Ratio of drug concentration at steady state in human at 600 mg administered twice weekly followed by 600 mg administered once in a week measured after 84 hrs to IC50 for human MRP2 overexpressed in Sf9 insect cells; format: ADME; settings: in vivo
[12] = AUC in human at 600 mg administered twice weekly followed by 600 mg administered once in a week measured after 84 hrs; format: ADME; design: dose 600 mg, time < 84 hr; settings: in vivo
[13] = Ratio of drug concentration at steady state in human at 15 to 60 mg, po QD after 24 hrs to IC50 for human BSEP overexpressed in Sf9 insect cells; format: ADME, organism-based; settings: in vivo
[14] = Ratio of drug concentration at steady state in human at 15 to 60 mg, po QD after 24 hrs to IC50 for human MRP4 overexpressed in Sf9 insect cells; format: ADME, organism-based; settings: in vivo
[15] = Drug concentration at steady state in human at 15 to 60 mg, po QD after 24 hrs; format: ADME, organism-based; settings: in vivo, read-out: Css
[16] = AUC in human at 15 to 60 mg, po QD after 24 hrs; format: ADME, organism-based; settings: in vivo
clinical = settings: human, in vivo, po
[17] = Drug concentration at steady state in human at 43 to 130 mg, po QD after 24 hrs; format: ADME, organism-based; settings: in vivo, read-out: Css
[18] = Drug concentration at steady state in human at 20 to 40 mg/kg, po QD after 24 hrs; format: ADME, organism-based; settings: in vivo, read-out: Css
[19] = Ratio of drug concentration at steady state in human at 20 to 40 mg/kg, po QD after 24 hrs to IC50 for human MRP4 overexpressed in Sf9 insect cells; format: ADME, organism-based; settings: in vivo
[20] = AUC in human at 20 to 40 mg/kg, po QD after 24 hrs; format: ADME, organism-based; settings: in vivo
[21] = Ratio of drug concentration at steady state in human at 20 to 40 mg/kg, po QD after 24 hrs to IC50 for human BSEP overexpressed in Sf9 insect cells; format: ADME, organism-based; settings: in vivo
[22] = AUC in human at 135 to 175 mg/m2, iv administered as infusion for 3 or 24 hrs measured after 1 hr; format: ADME, organism-based; design: time < 1 hr, route intravenous; settings: in vivo
Homo sapiens = assay: Drug concentration at steady state in human at 135 to 175 mg/m2, iv administered as infusion for 3 or 24 hrs measured after 1 hr; format: ADME, organism-based; settings: in vivo

Compound: CC#C[C@]1(O)CC[C@H]2[C@@H]3CCC4=CC(=O)CCC4=C3[C@@H](c3ccc(N(C)C)cc3)C[C@@]21C [MIFEPRISTONE]
IC50 [1]: > 133 µM
concentration at 24 h [2]: 7.56 µM
Ratio [3]: 3.743
AUC at 24 h [4]: 181 µM·h
IC50 [5]: > 133 µM
IC50 (Bile salt export pump): 2.02 µM
IC50 [6]: > 133 µM

Compound: CC(C)OC(=O)C(C)(C)Oc1ccc(C(=O)c2ccc(Cl)cc2)cc1 [FENOFIBRATE]
IC50 [1]: > 133 µM
AUC at 24 h (clinical): 357 µM·h
concentration at 24 h [17]: 14.9 µM
IC50 [5]: > 133 µM
IC50 [6]: > 133 µM

Compound: O=C(O)c1ccc(-n2nc(-c3ccccc3O)nc2-c2ccccc2O)cc1 [DEFERASIROX]
concentration at 24 h [18]: 138 µM
IC50 [1]: > 133 µM
Ratio [19]: 3.781
AUC at 24 h [20]: 3310 µM·h
Ratio [21]: 2.363
IC50 [5]: > 133 µM
IC50 (Bile salt export pump): 58.4 µM
IC50 [6]: 36.5 µM

Further lines, with some results ahead:

IC50 [1]: 16.3 µM
concentration at 84 h [7]: 4.7 µM
Ratio [8]: 0.058
Ratio [9]: 0.131
IC50 [5]: 80.9 µM
IC50 [6]: 35.9 µM
Ratio [11]: 0.288
AUC at 84 h [12]: 395 µM·h
Compound: CO[C@H]1/C=C/O[C@@]2(C)Oc3c(C)c(O)c4c(O)c(c(/C=N/N5CCN(C6CCCC6)CC5)c(O)c4c3C2=O)NC(=O)/C(C)=C\C=C\[C@H](C)[C@H](O)[C@@H](C)[C@@H](O)[C@@H](C)[C@H](OC(C)=O)[C@@H]1C [RIFAPENTINE]
Ratio [10]: 0.474
IC50 (Bile salt export pump): 9.91 µM

Ratio [14]: 0.019
concentration at 24 h [15]: 0.935 µM
AUC at 24 h [16]: 22.4 µM·h
IC50 [5]: > 133 µM
IC50 [6]: 49.5 µM
Compound: CCc1ccc(CCOc2ccc(CC3SC(=O)NC3=O)cc2)nc1 (stereo unspecified) [PIOGLITAZONE]
Ratio [13]: 2.338

IC50 [1]: > 133 µM
AUC at 1 h [22]: 14.8 µM·h
Css (Homo sapiens): 14.759 µM
IC50 [5]: > 133 µM
IC50 [6]: > 133 µM
Compound: CC(=O)O[C@H]1C(=O)[C@@]2(C)[C@H]([C@H](OC(=O)c3ccccc3)[C@]3(O)C[C@H](OC(=O)[C@H](O)[C@@H](NC(=O)c4ccccc4)c4ccccc4)C(C)=C1C3(C)C)[C@]1(OC(C)=O)CO[C@@H]1C[C@@H]2O [PACLITAXEL]
